Ends that are not written are not given here.
Test system: GH4C1 cells
Assay: Rat pituitary assay for somatostatin receptor antagonists (cAMP content of GH4C1 cells)
Format: cell-based
Conditions: 100 nM VIP as stimulus
From the text: This assay is designed to quantitate the activity of antagonists of somatostatin that interact directly at the somatostatin receptor. The assay facilitates discovery of agents which increase growth hormone secretion by modulating the inhibitory effects of somatostatin. As aforementioned, somatostatin (also abbreviated SRIF) inhibits GH secretion in the anterior pituitary by binding to a high affinity membrane-bound (and G-protein coupled) receptor which is coupled negatively to adenyl cyclase, thereby reducing intracellular levels of cAMP that would otherwise facilitate, for example, secretion/release of GH from cytoplasmic granules. […] The screen is designed to quantitate the ability of test agents to reverse SRIF's inhibition of the elevated intracellular cAMP levels produced by VIP.
In particular, cyclic AMP (cAMP) content of the pituitary cell line GH4C1 was used to differentiate somatostatin agonists from antagonists. […] This afforded a convenient way to conduct a homogenous immunoradiometric assay of cAMP content in cells lysed in situ, following incubation of the cells with test compound. cAMP content in the GH4C1 cells was determined according to the manufacturer's instructions, by comparison with standards at concentrations from 10 to 1,000 nM cAMP. […]
IC50 values are determined by polynomial regression and analzyed using a MACRO program. […]

Substance: VIP: Vasoactive intestinal peptide (Sigma V3628), endogenous peptide that stimulates GH secretion and activates adenylate cyclase (HSDAVFTDNYTRLRKQMAVKKYLNSILN-NH2; ends and bridges not checked; UniProt P01282 125-152, looked up)
- cAMP content of the GH4C1 cells: increased
